Assay results taken from PubChem BioAssay (NCI).
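Step 1: Grow cells in 96-well plates. Step 2: Expose to compound for 48 hours at 5 concentrations. Step 3: Interpolate endpoints linearly; if unreached, use highest concentration. The concentration for full growth arrest is given as TGI.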

What was measured:
Assay in all cases: DTP human tumour cell line panel, 48 h
[1] = test system: SF-295 CNS
[2] = test system: HS 578T breast
[3] = test system: IGROV1 ovarian
[4] = test system: OVCAR-8 ovarian
[5] = test system: OVCAR-5 ovarian
[6] = test system: EKVX NSCLC
[7] = test system: HOP-62 NSCLC
[8] = test system: TK-10 renal
[9] = test system: MALME-3M melanoma
[10] = test system: HOP-92 NSCLC

Row | Compound | TGI [1] [µM] | TGI [2] [µM] | TGI [3] [µM] | TGI [4] [µM] | TGI [5] [µM] | TGI [6] [µM] | TGI [7] [µM] | TGI [8] [µM] | TGI [9] [µM] | TGI [10] [µM]
1 | CCN(CCCOc1ccccc1)CCN(CC)CCCOc1ccccc1 | 41 | 30.4 | 23.5 | 38 | 38.9 | 28.9 | 45.5 | 27.1 | 32 | –
2 | CC(C)(C)c1ccccc1N1C(=O)c2ccc3c4c(ccc(c24)C1=O)N(c1ccccc1C(C)(C)C)C3=O | > 100 | > 100 | > 100 | > 100 | > 100 | > 100 | > 100 | – | – | > 100
3 | COc1ccc2c(c1)C(=O)CC1c3cnccc3C(=O)N21 (centres undefined) | > 100 | – | > 100 | > 100 | > 100 | > 100 | > 100 | > 100 | > 100 | > 100
4 | Oc1cc(Cc2ccccc2)c(Cc2ccccc2)cc1O | > 10 | > 10 | > 10 | > 10 | > 10 | > 10 | > 10 | – | > 10 | > 10
5 | CCO/C(=N/S(=O)(=O)C(F)(F)F)N(C(C)C)C(C)C | – | > 100 | > 100 | > 100 | > 100 | > 100 | – | > 100 | > 100 | > 100
6 | Cc1ccc2c(c1)-c1nc(N)c(C#N)c(-c3ccc(Cl)cc3)c1CCS2(=O)=O | – | > 100 | > 100 | > 100 | – | – | – | > 100 | > 100 | > 100
7 | CCNCCNC(=O)c1ccc(I)cc1 | – | > 100 | > 100 | > 100 | > 100 | > 100 | – | > 100 | – | > 100
8 | O=c1[nH]cc(NCCCl)c(=O)[nH]1 | > 100 | – | > 100 | > 100 | > 100 | > 100 | > 100 | > 100 | > 100 | > 100
9 | CC(=O)O[C@H]1CC(C)(C)C(=C=C/C(C)=C/C=C/C=C/C=C(C)/C=C2C=C(/C=C/[C@@]34O[C@]3(C)C[C@@H](O)CC4(C)C)C(=O)O/2)[C@](C)(O)C1 | 34.3 | – | 7.72 | 25.2 | 68.7 | – | 32 | 21.3 | 41.9 | > 100
10 | Cc1cc(C)nc(NS(=O)(=O)c2ccc(NC(=O)c3c4ccccc4nc4ccccc34)cc2)n1 | > 100 | – | > 100 | > 100 | > 100 | > 100 | > 100 | > 100 | > 100 | > 100
11 | C=CCSC1=N/C(=C\c2ccc(Cl)cc2)C(=O)N1CC=C | > 100 | > 100 | > 100 | > 100 | > 100 | 57.3 | > 100 | > 100 | – | 82.2
12 | COc1cc(C2c3c(ccc4ccccc34)C(=O)C3CCC(=O)N32)cc(OC)c1OC (centres undefined) | > 50 | > 50 | > 50 | > 50 | > 50 | > 50 | > 50 | – | – | > 50
13 | CN1CCN(C(=S)N(C)C(=O)c2ccco2)CC1 | > 100 | > 100 | > 100 | > 100 | > 100 | – | – | > 100 | > 100 | > 100
14 | COc1cc2c(c(O)c1O)C(=O)C1CCC(=O)N1C2c1cccc2ccccc12 (centres undefined) | > 50 | > 50 | > 50 | > 50 | > 50 | > 50 | > 50 | – | – | > 50
15 | c1ccc(-c2csc3c4ccccc4c4ccccc4[n+]23)cc1 | 16 | – | 31.3 | 17.9 | 35.8 | 31.8 | 20.7 | 43.6 | 3.21 | 24.9
16 | N=C1C(=N)c2ccccc2-c2ccccc21.[Cl-].[Ru+2].c1ccc(-c2ccccn2)nc1.c1ccc(-c2ccccn2)nc1 | > 100 | – | > 100 | > 100 | > 100 | > 100 | > 100 | > 100 | > 100 | > 100
17 | C[C@@]1(O)C2CC3CC1(c1ccccc1)CC(/C3=N/O)/C2=N\O (some centres undefined) | > 100 | – | > 100 | > 100 | > 100 | > 100 | > 100 | – | > 100 | > 100
18 | CNC(C)(C)Cc1ccc(Cl)cc1 | > 100 | – | > 100 | > 100 | – | > 100 | > 100 | > 100 | > 100 | –
19 | NC(=O)CNC(=O)[C@@H]1CC(OCCC(=O)O)CN1C(=O)C1CCCN1C(=O)OCc1ccccc1 (some centres undefined) | > 100 | > 100 | > 100 | > 100 | > 100 | > 100 | > 100 | > 100 | > 100 | –
20 | O=C(O)CCc1nc2c(n1-c1ccccc1)C(=O)c1ccccc1C2=O | > 100 | > 100 | > 100 | > 100 | > 100 | > 100 | > 100 | > 100 | – | 61.3
21 | CCn1nc(C)c2c1C(=O)NCC(=O)N2 | > 100 | > 100 | > 100 | > 100 | > 100 | > 100 | – | > 100 | – | > 100
22 | O=c1[nH]c2nc3ccccc3c(=O)n2/c1=C/c1ccc(Cl)cc1 | > 100 | 65.2 | – | 58.6 | > 100 | – | > 100 | > 100 | > 100 | > 100
23 | CCOC(=O)c1ccc(-n2[nH]nc(C(N)=O)c2=O)cc1 | > 100 | > 100 | > 100 | > 100 | > 100 | > 100 | > 100 | > 100 | > 100 | –
24 | c1ncn(C23C4C5C6C4C2C6C53)n1 (centres undefined) | > 100 | > 100 | > 100 | > 100 | > 100 | > 100 | > 100 | > 100 | – | –
